In patent publication US10004702B2, “Linear guanidine derivatives, methods of preparation and uses thereof” (LEAD DISCOVERY SIENA S.R.L., priority 2014, dated 2018):
Values after ≈ are worked out from the molar mass of the structure shown. Like-named read-outs stand apart in the source and are kept apart here.

How the values were obtained:
[1] = tested on: Klebsiella pneumoniae 081R; assay: Antimicrobial susceptibility testing, MIC by microdilution broth method; type: cell-based; details: Klebsiella pneumoniae, 081R
Method: (§1) Bacterial strains were obtained from the ATCC or CCUG culture collections or present in the authors' collection of clinical isolates. Compounds were re-suspended in dimethyl sulfoxyde (DMSO) at a final concentration of 10 mg/ml and subsequently diluted in the culture medium. The minimum inhibitory concentrations (MICs) of the compounds of the invention were determined using the microdilution broth method using Mueller-Hinton broth as recommended by the Clinical Laboratory Standards Institute (CLSI [11]). Bacterial inoculum was 5×10^4 CFU/well. MICs were recorded after 18-24 hours incubation at 35-37° C.
(§2) The Antibacterial activity of compound 28 was also tested on a panel of Gram-negative and Gram-positive clinical isolates, showing various antimicrobial susceptibility profiles (Table 4). The class of drugs for which the isolate was resistant to is indicated in column 2 (PEN, penicillins; ES-CEPH, expanded-spectrum cephalosporins; CARB, carbapenems; AZT; aztreonam; AG, aminoglycosides; FQ, fluoroquinolones; SXT, trimethoprim/sulfamethoxazole; FOS, fosfomycin; GLY, glycopeptides; LNZ, linezolid; COL-R, colistin resistant; COL-S colistin sensitive; PDR, poly-drug resistant).

[2] = tested on: Acinetobacter baumannii AC-54/97 (IMP-2); assay: as above; type: cell-based; details: Acinetobacter baumannii, read-out: MIC
Method: as §1, §2

[3] = tested on: Enterobacter cloacae VA-417/02 (VIM-4); assay: as above; type: cell-based; details: Enterobacter cloacae, read-out: MIC
Method: as §1, §2

[4] = tested on: Klebsiella pneumoniae ATCC 13833; assay: Bactericidal activity (MBC); type: cell-based; details: ATCC13833
[5] = tested on: Enterobacter cloacae VA-417/02 (VIM-4); assay: Bactericidal activity (MBC); type: cell-based
Water solubility = type: physicochemical; details: thermodynamic from solid, room temperature, LC-UV-MS
Method: Solid compound 28 (1.01 mg) was added to 1 mL of water. The sample was shaken in a shaker bath at room temperature for 24 h. The suspension was filtered through a 0.45-μm nylon filter (Acrodisc), and the solubilised compound determined by LC-UV-MS assay. The determination was performed in triplicate. For the quantification was used an LC-UV-MS system consisted of a Varian apparatus (Varian Inc) including a vacuum solvent degassing unit, two pumps (212-LC), a Triple Quadrupole MSD (Mod. 320-LC) mass spectrometer with ES interface and Varian MS Workstation System Control Vers. 6.9 software. Chromatographic separation was obtained using a Pursuit C18 column (50×2.0 mm) (Varian) with 3 μm particle size and gradient elution: eluent A being CH3CN and eluent B consisting of an aqueous solution of formic acid (0.1%).
The flow rate was 0.4 ml/min and injection volume was 20 μL. The instrument operated in positive mode and parameters were: detector 1850 V, drying gas pressure 25.0 psi, desolvation temperature 300.0° C., nebulizing gas 45.0 psi, needle 5000 V and shield 600 V. Nitrogen was used as nebulizer and drying gas. Collision induced dissociation was performed using Argon as the collision gas at a pressure of 1.8 mTorr in the collision cell, the collision energy was set to 149 eV. UV lamp was set to 210 nm. […]

Escherichia coli CCUG^T [6] = assay: Antimicrobial susceptibility testing, MIC by microdilution broth method; type: cell-based; details: Mueller-Hinton broth, 18-24 hours at 35-37° C., read-out: MIC
Method: as §1

[7] = tested on: Klebsiella pneumoniae ATCC 13833; assay: as above; type: cell-based; details: ATCC13833, Mueller-Hinton broth, 18-24 hours at 35-37° C., read-out: MIC
Method: as §1

[8] = tested on: Enterococcus faecalis ATCC 19433; assay: as above; type: cell-based; details: ATCC19433, Mueller-Hinton broth, 18-24 hours at 35-37° C., read-out: MIC
Method: as §1

[9] = tested on: Alcaligenes faecalis 424/98; assay: as above; type: cell-based; details: Mueller-Hinton broth, 18-24 hours at 35-37° C., read-out: MIC
Method: as §1

Burkholderia cepacia RII = assay: as above; type: cell-based; details: Mueller-Hinton broth, 18-24 hours at 35-37° C., read-out: MIC
Method: as §1

[10] = tested on: Chryseobacterium meningosepticum CCUG 4310; assay: as above; type: cell-based; details: Elizabethkingia meningoseptica, CCUG4310, Mueller-Hinton broth, 18-24 hours at 35-37° C., read-out: MIC
Method: as §1

[11] = tested on: Acinetobacter baumannii ATCC 17978; assay: as above; type: cell-based; details: ATCC17978, Mueller-Hinton broth, 18-24 hours at 35-37° C., read-out: MIC
Method: as §1

[12] = tested on: Stenotrophomonas maltophilia 634/08; assay: as above; type: cell-based; details: Mueller-Hinton broth, 18-24 hours at 35-37° C., read-out: MIC
Method: as §1

[13] = tested on: Gram-positive and Gram-negative organisms; assay: Antimicrobial susceptibility testing, overall statements on the panel; type: cell-based; details: overall comparison over the tested strains
Method: as §1

[14] = tested on: Chryseobacterium meningosepticum CCUG 4310; assay: Bactericidal activity (MBC); type: cell-based; details: Elizabethkingia meningoseptica, CCUG4310
[15] = tested on: human liver microsomial enzymes; assay: Metabolic stability assay; type: in vitro ADME; details: human liver microsomes, 1 h of incubation at 37° C., 50 μM
Method: The reaction was stopped by cooling in ice and adding 1.0 mL of acetonitrile. The reaction mixtures were then centrifuged, and the parent drug and metabolites were subsequently determined by LC-UV-MS as reported for the solubility assay

[16] = tested on: Acinetobacter baumannii ATCC 17978; assay: Bactericidal activity (MBC); type: cell-based; details: ATCC17978
[17] = tested on: Bacillus subtilis ATCC 6633; assay: Bactericidal activity (MBC); type: cell-based; details: ATCC6633
Escherichia coli CCUG^T [18] = assay: Bactericidal activity (MBC); type: cell-based
[19] = tested on: Achromobacter xylosoxidans AX 22; assay: Bactericidal activity (MBC); type: cell-based; details: AX22
[20] = tested on: Enterococcus faecalis ATCC 19433; assay: Bactericidal activity (MBC); type: cell-based; details: ATCC19433
[21] = tested on: Stenotrophomonas maltophilia 634/08; assay: Bactericidal activity (MBC); type: cell-based

`N=C(N)NCCCCCCCCN(CCCCCCCCNC(=N)NCC1CC1)C(=O)N(CCCCCCCCNC(=N)N)CCCCCCCCNC(=N)NCC1CC1` [Compound 28, 1,3-bis(8-(3-(cyclopropylmethyl)guanidino)octyl)-1,3-bis(8-guanidinooctyl)urea] gave an MIC ([1]; Table 4, resistance profile PDR, read-out: MIC) of 4 µg/mL (≈ 4.73 µM), an MIC ([1]; Tables 2 and 3, read-out: MIC) of 2 µg/mL (≈ 2.37 µM) and an MIC ([2]; Acinetobacter baumannii AC-54/97 (IMP-2), Tables 2 and 3) of 2 µg/mL (≈ 2.37 µM). For the same molecule, the MIC ([2]; Table 4, Acinetobacter baumannii AC-54/97, resistance profile PEN, ES-CEPH, CARB, AZT, AG, FQ, FOS, SXT) was 4 µg/mL (≈ 4.73 µM), the MIC ([3]; Enterobacter cloacae VA-417/02 (VIM-4), Tables 2 and 3) was 1 µg/mL (≈ 1.18 µM) and the MIC ([3]; Table 4, Enterobacter cloacae VA-417/02, resistance profile PEN, CEPH, CARB, AG, FQ) was 2 µg/mL (≈ 2.37 µM). It also gave an MBC [4] of 1 µg/mL (≈ 1.18 µM), an MBC [5] of 1 µg/mL (≈ 1.18 µM) and a solubility at 24 h (Water solubility) of 292 µg/mL (≈ 345 µM). For the same molecule, the MIC (Escherichia coli CCUG^T [6]) was 1 µg/mL (≈ 1.18 µM), the MIC [7] was 1 µg/mL (≈ 1.18 µM) and the MIC [8] was under 0.125 µg/mL. For the same molecule, the MIC [9] was 8 µg/mL (≈ 9.46 µM), the MIC (Burkholderia cepacia RII) was 8 µg/mL (≈ 9.46 µM) and the MIC [10] was 64 µg/mL (≈ 75.7 µM). The MIC [11] was 4 µg/mL (≈ 4.73 µM), the MIC [12] was 16 µg/mL (≈ 18.9 µM) and the “antimicrobial activity (in words)” value [13] was “most active among the series”. For the same molecule, the “antimicrobial spectrum (in words)” value [13] was “active against both Gram-positive and Gram-negative organisms”, the MBC [14] was 64 µg/mL (≈ 75.7 µM) and the metabolic stability [15] was 99.9%. It also gave an MBC [16] of 4 µg/mL (≈ 4.73 µM), an MBC [17] of 0.5 µg/mL (≈ 0.591 µM) and an MBC (Escherichia coli CCUG^T [18]) of 1 µg/mL (≈ 1.18 µM). The MBC [19] was 8 µg/mL (≈ 9.46 µM), the MBC [20] was under 0.125 µg/mL and the MBC [21] was 16 µg/mL (≈ 18.9 µM).
